{"source": "patent US20150010479A1", "about": "“TREATMENT OF MICROBIAL INFECTIONS” (SINCLAIR PHARMACEUTICALS LIMITED, priority 2012, published 2015)", "key": {"[1]": {"test_system": "C. albicans", "test": "CPC and delmopinol combination (chequerboard assay), FICi/FBCi", "assay_type": "cell-based, Candida albicans", "details": "CPC + delmopinol", "description": "(§1) 190 μl of normal broth (standard assays) or broth A was added to wells of a 96 well plate. […] 5 μl of each dilution of delmopinol was added to the appropriate wells of the 96 wells plate. The contents of each well were mixed thoroughly and then 100 μl volume was discarded.\n(§2) Plates were then incubated as described above. […] Following incubation the plates were examined and growth/no growth recorded for every well sample (used for FBC determination).\n(§3) FBCi were calculated in the same manner but using MBC data.\n(§4) The FICi and FBCi were interpreted using the same parameters as set out above."}, "[2]": {"test_system": "Prv. nigrescence", "test": "CPC and delmopinol combination (chequerboard assay), FICi/FBCi", "assay_type": "cell-based, Prevotella nigrescence", "description": "as §1, §2, §3, §4"}, "[3]": {"test_system": "P. gingivalis", "test": "CPC and delmopinol combination (chequerboard assay), FICi/FBCi", "assay_type": "cell-based, Porphyromonas gingivalis", "details": "CPC + delmopinol, Standard broth", "description": "as §1, §2, §3, §4"}, "[4]": {"test_system": "Prv. nigrescence", "test": "MIC/MBC of CPC or delmopinol alone", "assay_type": "cell-based", "details": "Prevotella, compound alone", "description": "(§5) The final mixture was then sterilized by filtration using a […] PES filter (Nalgene, 169-0045).\n(§6) Bacterial preparations were prepared using freshly grown cultures on solid media. Several loop-fulls of culture were transferred to 10-20 ml of the appropriate broth and vortexed gently until a fine suspension was produced. The initial OD600 nm of the cell suspensions was measured and adjusted to 0.2 to give a colony count of 1×10^8 cfu/ml. Final inocula were prepared by diluting the adjusted cell suspensions in appropriate broth as detailed below:\n(§7) The broths were added to wells in columns 1, 11 (negative control, broth only) and 12 (positive control).\n(§8) 100 μl of normal broth (standard assay) or broth A was added to wells in columns 2-10.\n(§9) After mixing in column 10, 100 μl was discarded. 5 μl of the appropriate solvent was added to wells in column 12, mixed and 100 μl discarded.\n(§10) Finally, 100 μl of inoculum (prepared in either normal broth or 2× broth A) was added to the wells in columns 1-10 and 12 and the plates were incubated as described above."}, "[5]": {"test_system": "C. albicans", "test": "MIC/MBC of CPC or delmopinol alone", "assay_type": "cell-based", "details": "Candida albicans, compound alone", "description": "as §5, §6, §7, §8, §9, §10"}, "[6]": {"test_system": "E. coli", "test": "MIC/MBC of CPC or delmopinol alone", "assay_type": "cell-based", "details": "Escherichia coli, compound alone", "description": "as §5, §6, §7, §8, §9, §10"}, "[7]": {"test_system": "S. aureus", "test": "MIC/MBC of CPC or delmopinol alone", "assay_type": "cell-based", "details": "Staphylococcus aureus", "description": "as §5, §6, §7, §8, §9, §10"}, "[8]": {"test_system": "P. gingivalis", "test": "MIC/MBC of CPC or delmopinol alone", "assay_type": "cell-based", "details": "Porphyromonas gingivalis", "description": "as §5, §6, §7, §8, §9, §10"}, "[9]": {"test_system": "E. faecalis", "test": "MIC/MBC of CPC or delmopinol alone", "assay_type": "cell-based, Entercoccus faecalis", "details": "Enterococcus faecalis, compound alone", "description": "as §5, §6, §7, §8, §9, §10"}, "[10]": {"details": "Decapinol base (Broth A), no delmopinol or sodium benzoate present, read-out: Activity alone Decapinol base MBC"}, "[11]": {"details": "Decapinol base (Broth A), no delmopinol or sodium benzoate present, read-out: Activity alone Decapinol base MIC"}, "[12]": {"details": "Standard broth, read-out: Activity alone Standard MBC"}, "[13]": {"details": "Standard broth, read-out: Activity alone Standard MIC"}}, "note": "Several values for one entry are separate records, joined by “and”; a condition that tells them apart may be missing. Equal values may be shown once. Read-outs that look alike come from different tables or passages of the source.", "data": [{"smiles": "CCCCCCCCCCCCCCCC[n+]1ccccc1", "note": "[CPC, cetylpyridinium chloride]", "values": [{"measurement": "Combination with delmopinol (FIC) Decapinol base FBCi", "setting": "[1]; Decapinol base (Broth A)", "result": 0.65, "unit": "p"}, {"measurement": "Combination with delmopinol (FIC) Decapinol base FICi", "setting": "[1]; Decapinol base (Broth A)", "result": 0.99}, {"measurement": "Combination with delmopinol (FIC) Standard FBCi", "setting": "[1]; Standard broth", "result": 0.68, "unit": "p"}, {"measurement": "Combination with delmopinol (FIC) Decapinol base FBCi", "setting": "[2]", "result": 0.53, "unit": "p"}, {"measurement": "Combination with delmopinol (FIC) Decapinol base FICi", "setting": "[2]", "result": 0.5, "unit": "s"}, {"measurement": "Combination with delmopinol (FIC) Standard FBCi", "setting": "[2]", "result": 0.79}, {"measurement": "Combination with delmopinol (FIC) Standard FICi", "setting": "[3]", "result": 0.62, "unit": "p"}]}, {"smiles": "CCCC(CCC)CCCC1COCCN1CCO", "note": "(centres unmarked) [Delmopinol, 3-(4-propylheptyl)-4-(2-hydroxyethyl)morpholine]", "values": [{"measurement": "MBC", "setting": "[4]; [10]", "result": "125 µg/mL and 460 µM"}, {"measurement": "MIC", "setting": "[4]; [11]", "result": "31.2 µg/mL and 120 µM"}, {"measurement": "MBC", "setting": "[4]; [12]", "result": "62.5 µg/mL and 230 µM"}, {"measurement": "MIC", "setting": "[4]; [13]", "result": "62.5 µg/mL and 230 µM"}, {"measurement": "MBC", "setting": "[5]; [10]", "result": "120 µg/mL and 460 µM"}, {"measurement": "MIC", "setting": "[5]; [11]", "result": "120 µg/mL and 460 µM"}, {"measurement": "MBC", "setting": "[5]; [12]", "result": "500 µg/mL and 1840 µM"}, {"measurement": "MIC", "setting": "[5]; [13]", "result": "500 µg/mL and 1840 µM"}, {"measurement": "MBC", "setting": "[6]; [10]", "result": "250 µg/mL and 920 µM"}, {"measurement": "MIC", "setting": "[6]; [11]", "result": "250 µg/mL and 920 µM"}, {"measurement": "MBC", "setting": "[6]; [12]", "result": "250 µg/mL and 920 µM"}, {"measurement": "MIC", "setting": "[6]; [13]", "result": "250 µg/mL and 920 µM"}, {"measurement": "MIC", "setting": "[7]; read-out: Activity alone Standard MIC", "result": 125, "unit": "µg/mL"}, {"measurement": "MBC", "setting": "[7]; S. aureus, compound alone, Decapinol base (Broth A), no delmopinol or sodium benzoate present, read-out: Activity alone Decapinol base MBC", "result": "250 µg/mL and 920 µM"}, {"measurement": "MIC", "setting": "[7]; S. aureus, compound alone, Decapinol base (Broth A), no delmopinol or sodium benzoate present, read-out: Activity alone Decapinol base MIC", "result": "250 µg/mL and 920 µM"}, {"measurement": "MBC", "setting": "[7]; S. aureus, compound alone, Standard broth, read-out: Activity alone Standard MBC", "result": "250 µg/mL and 920 µM"}, {"measurement": "MIC", "setting": "[7]; S. aureus, compound alone, Standard broth, read-out: Activity alone Standard MIC", "result": 460, "unit": "µM"}, {"measurement": "MBC", "setting": "[8]; read-out: Activity alone Decapinol base MBC", "result": 31.2, "unit": "µg/mL"}, {"measurement": "MIC", "setting": "[8]; read-out: Activity alone Decapinol base MIC", "result": 31.2, "unit": "µg/mL"}, {"measurement": "MBC", "setting": "[8]; read-out: Activity alone Standard MBC", "result": 31.2, "unit": "µg/mL"}, {"measurement": "MBC", "setting": "[8]; P. gingivalis, compound alone, Decapinol base (Broth A), no delmopinol or sodium benzoate present, read-out: Activity alone Decapinol base MBC", "result": 120, "unit": "µM"}, {"measurement": "MIC", "setting": "[8]; P. gingivalis, compound alone, Decapinol base (Broth A), no delmopinol or sodium benzoate present, read-out: Activity alone Decapinol base MIC", "result": 1.2, "unit": "µM"}, {"measurement": "MBC", "setting": "[8]; P. gingivalis, compound alone, Standard broth, read-out: Activity alone Standard MBC", "result": 120, "unit": "µM"}, {"measurement": "MIC", "setting": "[8]; P. gingivalis, compound alone, Standard broth, read-out: Activity alone Standard MIC", "result": 1.95, "unit": "µg/mL"}, {"measurement": "MBC", "setting": "[9]; [10]", "result": "250 µg/mL and 920 µM"}, {"measurement": "MIC", "setting": "[9]; [11]", "result": "250 µg/mL and 920 µM"}, {"measurement": "MBC", "setting": "[9]; [12]", "result": "250 µg/mL and 920 µM"}, {"measurement": "MIC", "setting": "[9]; [13]", "result": "250 µg/mL and 920 µM"}]}]}
